Results published in ChEMBL document CHEMBL3137667, “[Drug-induced liver injury; fourteenth updated edition of the bibliographic database of liver injuries and related drugs]” (Gastroenterol Clin Biol, 2004).
Where a SMILES comes first, the peptide text is derived from it. Bridges are numbered along the chain shown (N, C = ends). [ ]: non-standard residue; d: D form.

What was measured:
[1] = Highest frequency of moderate liver toxicity observed during clinical trials, expressed as a percentage. [column '% BIOL' in source]; settings: human
[2] = Highest frequency of acute liver toxicity observed during clinical trials, expressed as a percentage. [column '% AIGUE' in source]; settings: human
[3] = Comments (NB not yet translated). [column 'COMMENTAIRES' in source]; settings: human
[4] = Times to onset, minimal and maximal, observed in the indexed observations. [column 'DELAI' in source]; settings: human
[5] = human, serum
[6] = human, serum; remark: listed apart in the source
[7] = human
[8] = human; remark: listed apart in the source
[9] = human; remark: listed apart in the source
[10] = human, serum, 4383 h
[11] = human; remark: listed apart in the source
[12] = human; remark: listed apart in the source
[13] = human; remark: listed apart in the source
[14] = human; remark: listed apart in the source
[15] = human; remark: listed apart in the source
[16] = human; remark: listed apart in the source
[17] = Proposed mechanism(s) of liver damage. [column 'MEC' in source]; settings: human
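Throughout, for Hepatotoxicity (association with vascular disease): count of indexed literature references reporting vascular liver injury in humans, e.g. peliosis hepatitis, hepatic veno-occlusive disease or Budd-Chiari syndrome.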
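Throughout, for Hepatotoxicity (benign tumour): value is a count of indexed literature references citing a benign tumour confirmed by histopathology.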
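Throughout, for Hepatotoxicity (choleostasis): human cholestatic liver injury, shown by histopathology or by peak ALT or AST elevation over alkaline phosphatase ratio below 2, value counts indexed literature reports.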
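Throughout, for Hepatotoxicity (chronic liver disease): chronic liver injury confirmed by histopathology or persistently raised serum aminotransferase activity beyond 6 months, value given as the count of indexed literature references.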
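Throughout, for Hepatotoxicity (cirrhosis): value is a count of indexed literature references reporting cirrhosis confirmed by histopathology.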
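Throughout, for Hepatotoxicity (cytolytic): human cytolytic liver injury, shown by histopathology or by a ratio above 5 of peak ALT or AST elevation to alkaline phosphatase elevation, value counts indexed references.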
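Throughout, for Hepatotoxicity (granulomatous hepatitis): value is a count of indexed literature references reporting granulomatous liver disease confirmed by histopathology.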
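Throughout, for Hepatotoxicity (malignant tumour): malignant tumour confirmed by histopathology, value gives the count of indexed literature references reporting it.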
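Throughout, for Hepatotoxicity (severe hepatitis): human clinical data: severe hepatitis, meaning potentially life-threatening liver failure or clinically observed cases, the value counts how many indexed literature references report it.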
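Throughout, for Hepatotoxicity (steatosis): steatosis confirmed by histopathology, value is the count of indexed references.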

Compound	Hepatotoxicity (moderate) [1] [%]	Hepatotoxicity (acute) [2] [%]	Hepatotoxicity (comment) [3]	Hepatotoxicity (time to onset) [4]	Hepatotoxicity (moderate) [5]	Hepatotoxicity (acute) [6]	Hepatotoxicity (cytolytic) [7]	Hepatotoxicity (choleostasis) [8]	Hepatotoxicity (severe hepatitis) [9]	Hepatotoxicity (chronic liver disease) [10]	Hepatotoxicity (cirrhosis) [11]	Hepatotoxicity (granulomatous hepatitis) [12]	Hepatotoxicity (association with vascular disease) [13]	Hepatotoxicity (steatosis) [14]	Hepatotoxicity (malignant tumour) [15]	Hepatotoxicity (benign tumour) [16]	Hepatotoxicity (mechanism) [17]
CCOc1nc2cccc(C(=O)O)c2n1Cc1ccc(-c2ccccc2-c2nnn[nH]2)cc1	2.4	0	DUCTOPENIE	2 weeks - 5.5 months	3	2	3	0	1	0	0	0	0	1	0	0	
Cc1c(O)cccc1C(=O)N[C@@H](CSc1ccccc1)[C@H](O)CN1C[C@H]2CCCC[C@H]2C[C@H]1C(=O)NC(C)(C)C	27	7.4	REACTIVATION_HVB	47 days - 17 months	4	3	3	0	0	0	0	0	0	0	0	0	
CN(C)C(=O)Oc1cc(OC(=O)N(C)C)cc(C(O)CNC(C)(C)C)c1 (stereo not drawn) [BAMBUTEROL]	0	0	VOIR_TERBUTALINE		1	0	0	0	0	0	0	0	0	0	0	0	
CO/N=C(\C(=O)N[C@@H]1C(=O)N2C(C(=O)O)=C(CSc3nnnn3C)CS[C@H]12)c1csc(N)n1 [CEFMENOXIME]	12.2	0	CHOLESTASE_PROLONGEE		11	1	0	1	0	0	0	1	0	0	0	0	
C[C@]12CCC(=O)C=C1CC[C@@H]1[C@@H]2C(=O)C[C@@]2(C)[C@H]1CC[C@]2(O)C(=O)CO [CORTISONE]	0	0	AGGRAVATION_HEPATITE_VIRALE		0	0	0	0	0	0	0	0	2	5	0	0	
CC[C@H](c1ccc(O)cc1)[C@@H](CC)c1ccc(O)cc1 [HEXESTROL]	0	0	NASH		0	0	0	0	0	1	0	0	0	1	0	0	
CC(C)[C@@H]1NC(=O)[C@H](CCCCN)NC(=O)[C@@H](Cc2c[nH]c3ccccc23)NC(=O)[C@H](Cc2ccc(O)cc2)NC(=O)[C@@H](NC(=O)[C@H](N)Cc2ccc3ccccc3c2)CSSC[C@@H](C(=O)N[C@H](C(N)=O)[C@@H](C)O)NC1=O [LANREOTIDE]	0	0	BOUE_BILIAIRE LITHIASE_VESICULAIRE ENCEPHALOPATHIE		0	0	0	0	0	0	0	0	0	0	0	0	
O=C1Nc2ccc(Cl)cc2C(c2ccccc2Cl)=NC1O (stereo not drawn) [LORAZEPAM]	0	0	I/PYRIMETHAMINE		1	1	0	0	0	0	0	0	0	0	0	0	
CC1=C(C/C=C(\C)CCC[C@H](C)CCC[C@H](C)CCCC(C)C)C(=O)c2ccccc2C1=O [PHYTONADIONE]	0	0	ICTERE_NEONATAL		0	5	0	0	0	0	0	0	0	0	0	0	
COc1cc([C@@H]2c3cc4c(cc3[C@@H](O[C@@H]3O[C@@H]5CO[C@@H](c6cccs6)O[C@H]5[C@H](O)[C@H]3O)[C@H]3COC(=O)[C@H]23)OCO4)cc(OC)c1O [TENIPOSIDE]	23.8	0	HNR		4	0	0	0	0	0	0	0	1	0	0	0	
CC(C)[C@@H]1NC(=O)[C@H](CCCCN)NC(=O)[C@@H](Cc2c[nH]c3ccccc23)NC(=O)[C@H](Cc2ccc(O)cc2)NC(=O)[C@@H](NC(=O)[C@H](N)Cc2ccccc2)CSSC[C@@H](C(=O)N[C@@H](Cc2c[nH]c3ccccc23)C(N)=O)NC1=O [VAPREOTIDE] (H-[dF]CY[dW]KVCW-NH2; disulfide 2-7)	4.8	0	LITHIASE		1	0	0	0	0	0	0	0	0	0	0	0	
ANTIMONY (III) ION	0	0	HEPATONEPHRITE		0	1	1	0	0	0	0	0	0	0	0	0	
STIBOGLUCONATE	61.5	2		1 week - 3 weeks	12	2	1	0	0	0	0	0	0	0	0	0	Dose-dependant
